Results on 1 compound are retold here after paper PMC11456916, “A screen for cell envelope stress uncovers an inhibitor of prolipoprotein diacylglyceryl transferase, Lgt, in Escherichiacoli” (iScience, 2024).

Where two headings read alike, the source gives them in different places. A value given as a limit tells only on which side of the number the result lay.

Test [1] deals with 356 CRISPRi constructs in E. coli ΔtolC-pore. As to the kind of experiment: CRISPRi collection fitness screen with sub-inhibitory compound. Type of test: cell-based. The conditions noted are these: sub-inhibitory (¼ MIC) concentration, LB agar, basal knockdown. The essentials: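 Mobile CRISPRi collection conjugated into the ΔtolC-pore strain and pinned on agar at 1536 density in technical quadruplicate with a sub-inhibitory MAC-0452936 concentration. No CRISPRi induction; only basal 5–10% knockdown.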

A further test relates to P. aeruginosa PA01. As to the kind of experiment: MIC assay with or without SPR741, P. aeruginosa. The test is classed as cell-based, Pseudomonas aeruginosa. As to conditions: for MIC: Pseudomonas aeruginosa. As to the method:
We next sought to determine whether we could achieve growth inhibition of wild-type E. coli using MAC-0452936 and an antibiotic adjuvant. […] To that end, we determined the MIC of MAC-0452936 against wild-type E. coli in the presence and absence of a sub-MIC concentration of SPR741 (Figure S8B). […] We leveraged this combination to characterize the spectrum of activity of MAC-0452936 against a panel of Gram-negative pathogens (Table 2). In the presence of 8 μg/mL SPR741, we observed MAC-0452936 activity against the clinical E. coli isolates C0244 and CFT073 at 2 μg/mL as well as against Salmonella Typhimurium SL1344 at 4 μg/mL.
For MIC assays, cultures of bacteria were grown in LB broth. Overnight cultures were diluted (1:100) into fresh LB media and grown to the mid-log phase of growth (OD600 ∼0.5). Subcultures were then normalized to an OD600 of 0.1, and diluted (1:5000) into assay media. Assay plates were then incubated for 18 h at 37°C, then OD600 was measured using a Biotek Neo plate reader.

Turning to `COc1ccc(C(=O)O/N=C(\c2cccs2)C(C)(C)C)cc1` [MAC-0452936, (Z)-2-Pivaloylthiophene O-(4-methoxybenzoyl) oxime], the “growth defect of the lgt CRISPRi mutant in the presence of compound” value in test [1] is “considerable growth defect”. The “MIC, P. aeruginosa PA01 + 8 μg/mL SPR741” value in the test with P. aeruginosa PA01 (8 μg/mL SPR741) was “did not observe MAC-0452936 activity”. For the same compound, the MIC in the test on P. aeruginosa PA01 (PA01, read-out: MIC, P. aeruginosa PA01 + 8 μg/mL SPR741) was over 64 µg/mL; in the test with P. aeruginosa PA01 (PA01, read-out: MIC, P. aeruginosa PA01 + 0 μg/mL SPR741), over 64 µg/mL.
